The experiment concerns mitochondrial membrane potential (MMP) in HepG2 cells. Kind of experiment: qHTS mitochondrial membrane potential (MMP) assay with m-MPI dye, multiplexed with CellTiter-Glo cell viability. The conditions noted are these: for Emax: read-out: Efficacy; for MMP assay activity outcome (active antagonist / inactive / inconclusive): call from triplicate runs, multichannel readout and cell viability. It is filed as cell-based, human. (In qHTS, concentration-response curves come from the screen itself.)

Setting [1] is: Homo sapiens, HepG2 cells, 1 hr treatment, ratio 590 nm/535 nm, read-out: IC50 in the MMP assay (decrease of MMP).
Setting [2] is: Homo sapiens, HepG2, 1 h, read-out: Potency.
Setting [3] is: HepG2 cells, 1 hr treatment, ratio 590 nm/535 nm, read-out: IC50 in the MMP assay (decrease of MMP).
Where [4] appears, read: Table S4, 20 most potent active compounds for the MMP screen, HepG2, 1 hr.

Counter-ions that a name gives are not always drawn. Like-named read-outs stand apart in the source and are kept apart here.

Consider `COc1cccc2c1C(=O)c1c(O)c3c(c(O)c1C2=O)C[C@@](O)(C(=O)CO)C[C@@H]3O[C@H]1C[C@H](N)[C@H](O[C@@H]2CCCCO2)[C@H](C)O1` [Pirarubicin, reference compound], for which, under setting [1], the IC50 worked out at 600 nM. Take `C[C@@H]1O[C@@H](O[C@@H]2C=C3CC[C@@H]4[C@H](CC[C@]5(C)[C@@H](c6ccc(=O)oc6)CC[C@]45O)[C@@]3(C)CC2)[C@H](O)[C@H](O)[C@H]1O` [Proscillaridin, reference compound]: the “Potency rank in the MMP screen” value (HepG2 cells, 1 hr treatment) is listed as “among the most potent compounds”. The Emax (Homo sapiens, HepG2, 1 h) came out at 72.4%. The IC50 under setting [2] amounted to 86.8 nM. As to `CCC[CH2][Sn]([Cl])([CH2]CCC)[CH2]CCC` [Tributyltin chloride], the Efficacy is recorded as 96.9% and the “Potency rank in the MMP screen” value is “among the most potent compounds”. The IC50 (read-out: Potency) came to 107 nM. Compound `CC(=O)[O][Sn]([c]1ccccc1)([c]1ccccc1)[c]1ccccc1` [Triphenyltin acetate] displayed an Efficacy of 98.7%. Besides, the “Potency rank in the MMP screen” value (HepG2 cells, 1 hr treatment) is given as “among the most potent compounds”. Under “read-out: Potency”, the IC50 was found to be 117 nM. For `[OH-].c1cc[c]([Sn+]([c]2ccccc2)[c]2ccccc2)cc1` [Triphenyltin hydroxide], in that order: 94.7%, “among the most potent compounds” and 122 nM. As for `CC[C@@]1(O)C[C@H](O[C@H]2C[C@H](N(C)C)[C@H](O[C@H]3C[C@H](O)[C@H](O[C@H]4CCC(=O)[C@H](C)O4)[C@H](C)O3)[C@H](C)O2)c2c(cc3c(c2O)C(=O)c2c(O)cccc2C3=O)[C@H]1C(=O)OC` [aclarubicin hydrochloride, reference compound], the “MMP assay activity outcome (active antagonist / inactive / inconclusive)” value (HepG2 cells, 1 hr treatment) is given as “active”. Same read-out and setting: in the case of `COc1cccc2c1C(=O)c1c(O)c3c(c(O)c1C2=O)C[C@@](O)(C(=O)CO)C[C@@H]3O[C@H]1C[C@H](N)[C@H](O)[C@H](C)O1` [adriamycin hydrochloride, reference compound] it was “inactive”; in that of `ClC1=C(Cl)C2(Cl)C3C4C=CC(C4)C3C1(Cl)C2(Cl)Cl` (centres unmarked) [aldrin], “active as antagonists”.

`CCN=C1C=CC(=C(c2ccc(N(CC)CC)cc2)c2ccc(N(CC)CC)cc2)c2ccccc21.Cl` [basic blue 7, Basic blue 7]: the “Potency rank in the MMP screen” value (HepG2 cells, 1 hr treatment) is “among the most potent compounds”. In addition, under setting [3], the IC50 worked out at 18.5 nM. For the same compound, under setting [4], the Efficacy turned out to be 86.6%. With `CCC/C=C/C=C/C(=O)O[C@H]1/C(=C/C(=O)OC)C[C@H]2C[C@H]([C@@H](C)O)OC(=O)C[C@H](O)C[C@@H]3C[C@H](OC(C)=O)C(C)(C)[C@](O)(C[C@@H]4C/C(=C/C(=O)OC)C[C@H](/C=C/C(C)(C)[C@]1(O)O2)O4)O3` [bryostatin 1, Bryostatin 1, reference compound], the Emax (Homo sapiens, HepG2, 1 h) worked out at 105%. The IC50 was 9.58 nM under setting [2] and 9.6 nM under setting [1]. As for `CCN1/C(=C/C=C/c2ccc3ccccc3[n+]2CC)C=Cc2ccccc21.[I-]` [carbocyanine, Carbocyanine], under setting [4], the Efficacy came out at 90.7%. The IC50 (Table S4, 20 most potent active compounds for the MMP screen, HepG2, 1 hr, read-out: Potency) was determined as 14.7 nM.

For `O=C(O)C1C(C(=O)O)C2(Cl)C(Cl)=C(Cl)C1(Cl)C2(Cl)Cl` (centres unmarked) [chlorendic acid], the “MMP assay activity outcome (active antagonist / inactive / inconclusive)” value (HepG2 cells, 1 hr treatment) is “inactive”. On to `CO[C@@H]1[C@H](O)C[C@@H](O[C@@H]2C[C@H](Oc3cc4cc5c(c(O)c4c(O)c3C)C(=O)[C@@H](O[C@H]3C[C@@H](O[C@H]4C[C@@H](O[C@H]6C[C@](C)(O)[C@@H](OC(C)=O)[C@H](C)O6)[C@H](O)[C@@H](C)O4)[C@H](O)[C@@H](C)O3)[C@H]([C@H](OC)C(=O)[C@@H](O)[C@@H](C)O)C5)O[C@H](C)[C@@H]2OC(C)=O)O[C@@H]1C` [chromomycin A3], for which the “MMP assay activity outcome (active antagonist / inactive / inconclusive)” value (HepG2 cells, 1 hr treatment) is listed as “active”. Same read-out and setting: in the case of `O=[N+]([O-])c1ccc(O)c([N+](=O)[O-])c1` [dinitrophenol, reference compound] it was “inconclusive antagonist (cytotoxic)”. Take `CCCCCCCCCCCCOC(=O)c1ccc(O)cc1` [dodecylparaben]: under setting [3], the IC50 worked out at 4200 nM. Consider `COC(=O)c1ccc(O)cc1` [methylparaben], for which, where the note is “HepG2 cells, 1 hr treatment”, the “MMP assay activity outcome (active antagonist / inactive / inconclusive)” value is “inactive”.

With `COc1ccc(C(=O)c2ccc(C)cc2)c(O)c1` [mexenone], under “HepG2 cells, 1 hr treatment”, the “MMP assay activity outcome (active antagonist / inactive / inconclusive)” value was “not active”. As for `C[C@@H]1O[C@@H](O[C@H]2C[C@@H](O)[C@]3(CO)[C@H]4[C@H](O)C[C@]5(C)[C@@H](C6=CC(=O)OC6)CC[C@]5(O)[C@@H]4CC[C@]3(O)C2)[C@H](O)[C@H](O)[C@H]1O` [ouabain, reference compound], the “Potency rank in the MMP screen” value (HepG2 cells, 1 hr treatment) was “among the most potent compounds”.

Turning to `COc1ccc(Cc2nccc3cc(OC)c(OC)cc23)cc1OC` [papaverine, reference compound], where the note is “HepG2 cells, 1 hr treatment”, the “MMP assay activity outcome (active antagonist / inactive / inconclusive)” value was “inconclusive antagonist (cytotoxic)”. Take `CCCCCOC(=O)c1ccc(O)cc1` [pentylparaben]: the IC50 under setting [1] amounted to 8700 nM. Turning to `CCCOC(=O)c1ccc(O)cc1` [propylparaben], under setting [1], the IC50 turned out to be 38600 nM. For the compound `C=C(C)[C@H]1Cc2c(ccc3c2O[C@@H]2COc4cc(OC)c(OC)cc4[C@@H]2C3=O)O1` [rotenone, reference compound], for the setting “HepG2 cells, 1 hr treatment”, the “MMP assay activity outcome (active antagonist / inactive / inconclusive)” value is recorded as “inconclusive antagonist (cytotoxic)”. Same read-out and setting: in the case of `CC1(C)C(C(Cl)Cl)C2(Cl)C(Cl)C(Cl)C1(Cl)C2(Cl)Cl` (centres unmarked) [toxaphene] it was “active as antagonists”. As for `CCCCC(=O)OCC(=O)[C@]1(O)Cc2c(O)c3c(c(O)c2[C@@H](O[C@H]2C[C@H](NC(=O)C(F)(F)F)[C@H](O)[C@H](C)O2)C1)C(=O)c1c(OC)cccc1C3=O` [valrubicin, reference compound], under setting [1], the IC50 turned out to be 1900 nM. Methyl violet: the Efficacy is recorded as 121.5%. For the same compound, the “Potency rank in the MMP screen” value (HepG2 cells, 1 hr treatment) is “among the most potent compounds”. For the same compound, the IC50 (read-out: Potency) worked out at 65.3 nM. On to plicamycin [reference compound], for which the “MMP assay activity outcome (active antagonist / inactive / inconclusive)” value (HepG2 cells, 1 hr treatment) is listed as “active”.

These data come from publication PMC4286281, “Profiling of the Tox21 Chemical Collection for Mitochondrial Function to Identify Compounds that Acutely Decrease Mitochondrial Membrane Potential” (Environmental Health Perspectives, 2014).
